The values that follow come from patent publication US6630123B1, “Method to enhance tissue accumulation of radiolabeled compounds” (Board of Supervisors of Louisiana State University and …, priority 1997, dated 2003).

Where no end group is shown, it is not given here.

Series [1] deals with neuroendocrine cancers expressing the somatostatin receptor. The series is described as follows: Pilot clinical trial of monthly 180 mCi doses. The settings on record: ten patients. Type of series: in vivo, human. As to the method: For six months, pilot clinical trials were conducted in ten human patients with progressive metastatic indolent and symptomatic neuroendocrine cancers expressing the somatostatin receptor. […] The first monthly dose was a bolus injection of 180 mCi. The second monthly dose was infusion of 180 mCi over 72 hr. The third monthly dose was infusion of 180 mCi over 24 hr. Thereafter, all monthly doses were infusion of 180 mCi over 24 hr. Clinical benefits (as evidenced by reduced pain, weight gain, reduced malaise, etc.) occurred in 6 of the 10 neuroendocrine (carcinoid/islet cell) patients. Partial radiographic responses (greater than 50% reduction in the product of perpendicular tumor diameters) occurred in 2 patients, and significant tumor necrosis developed in 7 of the 10 neuroendocrine patients. Treatment-related toxicity included 2 Grade III platelet, 1 Grade II WBC, 1 Grade I WBC and 2 Grade I Hb on the NCI (National Cancer Institute) grading scale.

In series [2] the test system is tumor in the left side of the neck (metastatic small cell carcinoma). The settings on record: in vivo.
Description: During and after each administration of the last eight doses, a tumor in the left side of the neck was monitored for radioligand uptake with an ion chamber survey meter, a Victoreen 450P ion chamber, which measures external gamma dose rates. Administration of the initial seven doses were by bolus inject ion. The last three doses were delivered by infusion with various activities of radioligand.
The external gamma dose rates from radioligand accumulation in the neck tumor area were measured immediately and 24 hr after injection. After the treatment of the fifth month, the patient was monitored for radioligand uptake for an extended period—at 2, 4, and 8 days after the injection.
Four months after the final bolus dose, the first dose by infusion (“Infusion 1”) was administered. A dose equivalent to the previous bolus dose (175.9 mCi) was given, but the radioligand was administered by infusion over 72 hr at a constant rate of 2.5 mCi/hr.
One month later, in “Infusion 2,” the total dose was increased to 389.2 mCi. By infusion, 189.8 mCi of the radioligand was given over the first 24 hr, 108.6 mCi over the second 24 hr, and 90.8 mCi over the third 24 hr. For each 24 hr period, the infusion rate was kept constant.
One month later, a third dose was administered by infusion (“Infusion 3”). A dose of 301 mCi was infused the first 24 hr period. […]
For series [3] the following is noted: cited from earlier work.
Series [4] relates to human placental-derived vascular endothelial cells. The series is described as follows: Binding and internalization in angiogenic vascular endothelial cells. Type of series: cell-based. To be noted: 500,000 cells, 500,000 cpm, acid wash, FIG. 17. An excerpt:
Human placental-derived vascular endothelial cells were used to assay for cell binding of the somatostatin analog, ^125I-JIC-2D. The radioligand, a somatostatin analog, ^125I-JIC-2D, was made by solid phase peptide synthesis as described in U.S. Pat. No. 5,597,894. This peptide has an amino acid sequence of the following: D-Lys-D-Tyr-D-Lys-D-Tyr-D-Lys-C[Cys-Phe-D-Trp-Lys-Thr-Cys]-Thr-NH2. The cells were obtained by growing discs of human placental veins in fibrinclots for 14 days. […] These discs and their angiogenic sprouts are harvested mechanically and dissociated by vortexing. The vein discs are then discarded and the endothelial cells pooled. Cells were harvested, counted with a hemocytometer, and resuspended in binding buffer (Minimum Essential Medium (MEM), 10 mM Hepes, 0.01% BSA). A standard assay used 500,000 cells in 1 ml of binding buffer. […] At the termination of the experiment, the incubation medium was removed, the cells were rinsed twice with Hanks balanced salt solution (HBSS), and the radioactivity in the cells determined using a gamma counter. This level of radioactivity represents total binding, which includes both membrane-bound and internalized fractions. Specific binding was determined by calculating the difference in the levels of measured radioactivity without the unlabeled competitor minus the radioactivity with the unlabeled competitor. […]

Series [5] relates to human placental vein discs (angiogenic vascular tissue). The series is described as follows: Human Placental Vein Angiogenesis Model. It counts as cell-based. To be noted: 50 μCi/mL (or equivalent amounts). An excerpt: Watson et al., “Up-Regulation of Somatostatin Receptor Subtype 2. (SST-2) mRNA Occurs During the Transformation of Human Endothelium to the Angiogenic Phenotype,” Paper Presented at the 12th International Symposium on Regulatory Peptides, Copenhagen, Denmark, September 1996; J. C. Watson et al., “SST-2 Gene Expression Appears During Human Angiogenesis,” Regulatory Peptides, vol. 64, p. 206 (Abstract) (1996); and J. C. Watson et al., “Breast Cancer Increases Initiation of Angiogenesis Without Accelerating Neovessel Growth Rate,” Surgery, vol. 122, pp. 508-14 (1997). Human placental veins were cut into discs of 2 mm diameter and were incorporated into a 0.3% fibrinogen gel. This gel was then overlaid with tissue culture media containing 10-20% fetal calf serum (FCS). Under normal conditions, endothelial cords will begin to sprout from the transected cut edge of the vein discs within six days.
These vein discs were placed into wells of three separate culture plates. One culture plate, the control sample, was allowed to grow without treatment. […] The discs were then incubated for fourteen days. After 14 days the culture plates were examined for the number of wells in which angiogenic growth was initiated. […] The molar concentration of the radiolabeled somatostatin analog added to the culture plates was in the femtomolar range (10^−15). This concentration is 1000× or more below the concentration of unlabeled somatostatin analog that is known to inhibit angiogenesis; a concentration of 10^−5 M to 10^−8 M. Thus any effect was due to the radiolabel and not just the presence of the somatostatin analog. […] Only the radiolabel connected to the somatostatin analog would be incorporated into the DNA. Thus the greater decrease is due to this incorporation and the Auger emission on DNA.
Using a digital image analyzer, the mean area of the sprouting tissue surrounding the discs was measured.
To measure the growth rate of angiogenic vascular tissue, every two days during the 14-day incubation period, the length of sprouts were measured. […]

Series [6] has as its system T47D breast cancer cell line. Put plainly: Specific binding of radiolabeled estradiol with time, T47D. Type of series: cell-based, human. To be noted: T-47D. As to the method: (§1) To follow the time of uptake of a steroid hormone, three cell lines were incubated with a radiolabeled estrogen using procedures similar to those of Example 2. Three breast cancer cell lines were used; MCF-7 (ATCC No. HTB-22), T47D (ATCC No. HTB-133), and ZR-75-1 (ATCC No. CRL-1500). The estrogen used was 17-β-estradiol, the major secreted estrogen in humans. The radiolabeled compound was ^125I-17-β-estradiol, which was either purchased from New England Nuclear or synthesized by the following procedure: A 10 ml Sephadex G-10 column was equilibrated for 1 hr with 0.1 M PBS. A solution was prepared of 12.5 μg estradiol conjugate (BL-43), 25 μl methanol, 50 μl 0.05 M phosphate buffer pH 7.5, 3 mCi Na^125I, and 25 μl of a mixture of 10 mg chloramine-T and 10 ml 0.05 M phosphate buffer. After mixing for 40 sec, 25 μl of sodium metabisulfite 20 mg/10 ml 0.05 M Phosphate buffer was added and mixed an additional 40 sec. The mixture was then added to the Sephadex column and eluted first with 0.1 M PBS. Finally, the radiolabeled estradiol was eluted with 0.1 M PBS and 1,4 Dioxane (70:30).
(§2) The standard binding procedure described in Example 2 was used except that radiolabeled estradiol was used as the ligand with 1000× excess non-radioactive estradiol as the competitor. Unlike peptides that initially must bind on the plasma membrane, steroids bind only to intracellular receptors. Thus no radioactivity on the membrane should be found.

Series [7] relates to ZR-75-1 breast cancer cell line. Put plainly: Specific binding of radiolabeled estradiol with time, ZR-75-1. Type of series: cell-based, human. As to the method:
as §1, §2

In series [8] the test system is MCF-7 breast cancer cell line. Put plainly: Specific binding of radiolabeled estradiol with time, MCF-7. Type of series: cell-based, human. As to the method: as §1, §2
The subject of the next series is IMR-32 cells. The series is described as follows: Nuclear translocation, Percoll density gradient fractionation. Type of series: cell-based, human. The protocol: The cells were washed twice in media at 4° C. and resuspended in cold isotonic sucrose. The labeled cells were passed through a ballbearing homogenizer three times to disrupt cell membranes while leaving approximately 95% of the cell nuclei intact, according to the method of Balch et al., Arch. Biochem. Biophys., vol. 240, p. […] The cell homogenate was mixed with Percoll to give a final concentration of 0.292% Percoll and spun at 20,400 rpm in a Beckman 40.2 rotor for 45 min to generate a density gradient. Density marker beads (Pharmacia) were used to indicate density levels in the tube. The contents of the tube were fractionated in an ISCO Density Gradient Fractionator. The resulting tubes were assayed for content of radiolabeled somatostatin or analogs, DNA to indicate nuclei, protein, the plasma membrane marker 5′-nucleotidase, and the lysosome marker N-acetylglucosaminidase. The usual assumption was made that the radioactivity measured in fractions rich in a certain cell component was in fact associated with that component; e.g., the radioactivity measured in a fraction rich in plasma membrane was due to association of the radiolabeled compound with the plasma membrane.

`C[C@@H](O)[C@@H]1NC(=O)[C@H](CCCCN)NC(=O)[C@@H](Cc2c[nH]c3ccccc23)NC(=O)[C@H](Cc2ccccc2)NC(=O)[C@@H](NC(=O)[C@@H](Cc2ccccc2)NC(=O)CN2CCN3CCN(CC(=O)O)CC(=O)[O][111In]([O]C(=O)C3)[O]C(=O)C2)CSSC[C@@H](C(=O)N[C@H](CO)[C@@H](C)O)NC1=O` [^111In-pentetreotide, ^111In-DTPA-D-Phe^1-octreotide]: in series [1], the “Treatment-related toxicity: Grade I Hb (NCI scale), number of cases” value is recorded as 2; the “Treatment-related toxicity: Grade I WBC (NCI scale), number of cases” value is reported as 1; the “Treatment-related toxicity: Grade II WBC (NCI scale), number of cases” value is 1; the “Treatment-related toxicity: Grade III platelet (NCI scale), number of cases” value is on record as 2. Besides, the “half-life of exponential decay of tumor radioactivity (approached physical half-life of the radioligand)” value in series [2] (female, human) was roughly 67.3 h. Further, in series [2], the “persistence of tumor foci on gamma camera scintigraphy” value is “still identifiable by gamma scintigraphy thirteen days after completion of the last infusion dose”.
On to `CC(C)[C@@H]1NC(=O)[C@H](CCCCN)NC(=O)[C@@H](Cc2c[nH]c3ccccc23)NC(=O)[C@H](Cc2ccc(O)cc2)NC(=O)[C@@H](NC(=O)[C@H](N)Cc2ccc3ccccc3c2)CSSC[C@@H](C(=O)N[C@H](C(N)=O)[C@@H](C)O)NC1=O` [lanreotide], for which, in [3], the biologic half-life is reported as 60-90 min.
With “D-Lys-D-Tyr-D-Lys-D-Tyr-D-Lys-C[Cys-Phe-D-Trp-Lys-Thr-Cys]-Thr-NH2 [^125I-JIC-2D]”, the binding and internalization entry in [4] was “the vast majority of the radioligand was internalized into the cell”.
Regarding ^111In-Cl, the “growth rate (mm/day) of angiogenic vascular tissue” value in [5] (14-day incubation, FIG. 20) was “substantially below that of the control”. Further, in series [5] (14 days, FIG. 18), the “% initiation of angiogenic growth” value was “substantially less than the control plate”. Also, the “vessel area (mm^2) of sprouting tissue” value in series [5] (14 days, FIG. 19) is “substantially less”.
Turning to ^125I-17-β-estradiol, the “Specific Binding” value in [6] (1 Hr) stood at 401 CPM; in [6] (4 Hr), 506 CPM; in series [6] (24 Hr), 532 CPM; in series [6] (48 Hr) it was 455 CPM; in series [7] (ZR-75-1, 1 Hr) it was 4102 CPM; in [7] (ZR-75-1, 4 Hr), 4865 CPM. The “Specific Binding” value was determined as 3370 CPM in series [7] (ZR-75-1, 24 Hr); 3057 CPM in series [7] (ZR-75-1, 48 Hr); 1605 CPM in series [8] (MCF-7, 1 Hr); 2253 CPM in series [8] (MCF-7, 4 Hr); 4109 CPM in series [8] (MCF-7, 24 Hr); 731 CPM in [8] (MCF-7, 48 Hr).
“^125I-somatostatin: radiolabeled native somatostatin, very short-lived peptide (AGCKNFFWKTFTSC; ends and bridges not checked; also: 125I label, site not given here; UniProt P61278 103-116, looked up)”: the “cellular distribution of radioactivity (membrane vs nuclear fractions)” value with IMR-32 cells (1 hr incubation) is “both membrane binding and small amounts of nuclear binding”; in the series with IMR-32 cells (4 hr incubation), “plasma membrane binding appeared to have peaked and the nuclear fraction was dissipating”; in the series with IMR-32 cells (24 hr incubation) it was “essentially no plasma membrane or nuclear binding was seen”.
